Like-named read-outs stand apart in the source and are kept apart here.
Assays:
5-HT1B receptor = target: T1, 5-HT1B receptor (Macaca mulatta, UniProt F6SFA9); experiment: Example 1 PET monkey study: change in [11C]AZ10419369-5-HT1B receptor binding potential (BPND); format: in vivo, rhesus monkeys; details: rhesus monkey, iv, mean±standard error, n=3, read-out: ΔBPND (% of baseline); for change in vivo at 0.3 mg/kg: Vortioxetine 0.3 mg/kg IV; for change in vivo at 1 mg/kg: Vortioxetine 1.0 mg/kg IV
T1 construct: assess changes in the endogenous serotonin concentration in living rhesus monkeys; from tissue; host or cells: brain of living rhesus monkeys (PET)
Excerpt: (§1) Positron Emission Tomography (PET) was used to assess changes in the endogenous serotonin concentration in living rhesus monkeys. The objective of the present study was two-fold. […] The chemical name for [^11C]MADAM is [^11C] N,N-dimethyl-2-(2-amino-4-methylphenylthio)benzylamine.
(§2) FIG. 1 illustrates the study design used for assessment of serotonin releasing capacities. A similar study design was applied for assessment of SERT occupancy.

[1] = target: T2, serotonin transporter (SERT) (Macaca mulatta, UniProt Q9MYX0); experiment: Example 1 PET monkey study: SERT occupancy with [11C]MADAM; format: in vivo, rhesus monkeys; details: rhesus monkey, iv, monkey brain
T2 construct: serotonin transporter occupancy in the monkey brain using the SERT radio-ligand; from tissue; host or cells: brain of living rhesus monkeys (PET)
Excerpt: as §1, §2

[2] = cited from earlier work
depression = details: FDA label of July 2014; oral treatment; cited from earlier work

T1 sequence (F6SFA9 1-390): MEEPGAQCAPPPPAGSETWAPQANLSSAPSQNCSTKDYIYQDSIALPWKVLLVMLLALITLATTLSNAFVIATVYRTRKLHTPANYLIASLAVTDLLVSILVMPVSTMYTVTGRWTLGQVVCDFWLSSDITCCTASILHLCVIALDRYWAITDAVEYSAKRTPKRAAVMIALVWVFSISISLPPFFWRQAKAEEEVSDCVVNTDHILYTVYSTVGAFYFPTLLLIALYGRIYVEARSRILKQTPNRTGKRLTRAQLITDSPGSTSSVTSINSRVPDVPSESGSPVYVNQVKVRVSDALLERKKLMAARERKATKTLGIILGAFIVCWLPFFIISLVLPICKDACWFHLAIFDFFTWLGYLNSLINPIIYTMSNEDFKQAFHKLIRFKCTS
T2 sequence (Q9MYX0 whole entry): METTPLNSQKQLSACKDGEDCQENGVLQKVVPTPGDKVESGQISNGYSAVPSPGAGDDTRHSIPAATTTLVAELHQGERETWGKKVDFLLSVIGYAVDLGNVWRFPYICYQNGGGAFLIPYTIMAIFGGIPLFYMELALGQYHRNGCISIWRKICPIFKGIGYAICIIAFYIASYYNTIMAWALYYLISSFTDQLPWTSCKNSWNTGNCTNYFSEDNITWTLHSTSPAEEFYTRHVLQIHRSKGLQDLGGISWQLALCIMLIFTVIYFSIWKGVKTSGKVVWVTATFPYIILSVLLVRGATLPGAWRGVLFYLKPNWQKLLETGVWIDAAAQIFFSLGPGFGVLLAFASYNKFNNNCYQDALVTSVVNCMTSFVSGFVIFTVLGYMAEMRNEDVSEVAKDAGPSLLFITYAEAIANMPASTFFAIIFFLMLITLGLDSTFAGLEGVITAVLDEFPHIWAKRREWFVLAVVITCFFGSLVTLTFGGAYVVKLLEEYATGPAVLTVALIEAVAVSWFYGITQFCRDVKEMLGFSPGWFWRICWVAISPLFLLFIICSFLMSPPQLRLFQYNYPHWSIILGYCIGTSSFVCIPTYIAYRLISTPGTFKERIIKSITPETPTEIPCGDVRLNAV

change in vivo at 0.3 mg/kg (5-HT1B receptor; Amygdala): -12.4 ± 10.5%
change in vivo at 1 mg/kg (5-HT1B receptor; Amygdala): -39.5 ± 11.5%
change in vivo at 0.3 mg/kg (5-HT1B receptor; Caudate nucleus): -23.2 ± 7.4%
change in vivo at 1 mg/kg (5-HT1B receptor; Caudate nucleus): -47 ± 8%
change in vivo at 0.3 mg/kg (5-HT1B receptor; Dorsal raphe nucleus): -28.3 ± 13.6%
change in vivo at 1 mg/kg (5-HT1B receptor; Dorsal raphe nucleus): -55 ± 3.3%
change in vivo at 0.3 mg/kg (5-HT1B receptor; Frontal gyrus): -8.2 ± 8.2%
change in vivo at 1 mg/kg (5-HT1B receptor; Frontal gyrus): -32.8 ± 9.5%
change in vivo at 0.3 mg/kg (5-HT1B receptor; Globus pallidus): -16.3 ± 5.1%
change in vivo at 1 mg/kg (5-HT1B receptor; Globus pallidus): -41.2 ± 6.4%
change in vivo at 0.3 mg/kg (5-HT1B receptor; Hippocampus): -9.4 ± 8.9%
change in vivo at 1 mg/kg (5-HT1B receptor; Hippocampus): -27 ± 6.8%
change in vivo at 0.3 mg/kg (5-HT1B receptor; Midbrain): -21.9 ± 3%
change in vivo at 1 mg/kg (5-HT1B receptor; Midbrain): -49.4 ± 7.1%
change in vivo at 0.3 mg/kg (5-HT1B receptor; Occipital gyrup): -24.3 ± 3.2%
change in vivo at 1 mg/kg (5-HT1B receptor; Occipital gyrup): -54.1 ± 4.2%
change in vivo at 0.3 mg/kg (5-HT1B receptor; Putamen): -15.6 ± 8.5%
change in vivo at 1 mg/kg (5-HT1B receptor; Putamen): -40.8 ± 7.9%
change in vivo at 0.3 mg/kg (5-HT1B receptor; Thalamus): -23.9 ± 5%
change in vivo at 1 mg/kg (5-HT1B receptor; Thalamus): -42.5 ± 7%
change in vivo at 0.3 mg/kg (5-HT1B receptor; Ventral striatum): -25.6 ± 5.4%
change in vivo at 1 mg/kg (5-HT1B receptor; Ventral striatum): -47.7 ± 8.5%
receptor occupancy at 0.3 mg/kg ([1]; vortioxetine 0.3 mg/kg intravenously): ~50%
receptor occupancy at 1 mg/kg ([1]; vortioxetine 1.0 mg/kg intravenously): ~80%
SMILES: Cc1ccc(Sc2ccccc2N2CCNCC2)c(C)c1 [Vortioxetine, 1-[2-(2,4-dimethyl-phenylsulfanyl)-phenyl]piperazine]
steady-state plasma level (median AUC0-24) ([2]; once daily oral 5 mg): 161 ng·h/mL
steady-state plasma level (median AUC0-24) ([2]; once daily oral 10 mg): 323 ng·h/mL
steady-state plasma level (median AUC0-24) ([2]; once daily oral 15 mg): 484 ng·h/mL
steady-state plasma level (median AUC0-24) ([2]; once daily oral 20 mg): 645 ng·h/mL
time until steady-state plasma concentration is achieved ([2]; once daily oral administration): approximately 8 days
effect of vortioxetine is observed starting at week (depression): 2 week
full antidepressant effect not seen until week (depression): ≥ 4 week

From patent US10258617B2, “Dosing regimens for fast onset of antidepressant effect” (H. Lundbeck A/S, priority 2016, dated 2019)
